B1: CouRS-D8 (protein)
chain: MDEFEMIKRNTSEIISEEELREVLKKDEKSAEIGFEPSGKIHLGHYLQIKKMIDLQNAGFDIIIHLGDLGAYLNQKGELDEIRKIGDYNKKVFEAMGLKAKYVYGSEYHLDKDYTLNVYRLALKTTLKRARRSMELIAREDENPKVAEVIYPIMQVNGIHYGGVDVAVGGMEQRKIHMLARELLPKKVVCIHNPVLTGLDGEGKMSSSKGNFIAVDDSPEEIRAKIKKAYCPAGVVEGNPIMEIAKYFLEYPLTIKRPEKFGGDLTVNSYEELESLFKNKELHPMDLKNAVAEELIKILEPIRKRL
modifications: L-(7-hydroxycoumarin-4-yl) ethylglycine aminoacyl-tRNA synthetase

Legend:
[1] = Absorption and emission spectra of the coumarin amino acid; assay type: physicochemical; conditions: phenolate form, pH 7.4, 100 mM sodium phosphate buffer
Method: FIG. 2 provides absorption and emission spectra of L-(7-hydroxycoumarin-4-yl)ethylglycine. Both spectra were recorded at pH 7.4, 100 mM sodium phosphate buffer. At this pH, L-(7-hydroxycoumarin-4-yl)ethylglycine is present in both phenol and phenolate forms (in approximately a 2:1 ratio). The phenolate form has an extinction coefficient of 17000 at […] and a quantum yield of 0.63.

[2] = pH sensitivity of the absorption spectrum (pKa determination); assay type: physicochemical; conditions: 60 μM in 100 mM sodium phosphate buffer, calculated from absorbance at 360 nm versus pH
Method: FIG. 7 provides an absorption spectrum of 60 μM coumarinyl amino acid L-(7-hydroxycoumarin-4-yl)ethylglycine in 100 mM sodium phosphate buffer.
The absorption spectrum of 60 μM coumarinyl amino acid 7-hydroxycoumarin-ethylglycine was measured in 100 mM sodium phosphate buffer. The absorbance of 360 nm increased while pH increased.

[3] = test system: amber codon in the chloramphenicol acetyl transferase (CAT) gene; assay: Chloramphenicol survival of synthetase clones (amber suppression in CAT gene); assay type: cell-based, E. coli; conditions: 60 hours at 37° C., GMML-agar
Method: Subsequently, this library was subjected to rounds of both positive and negative selections. In the positive selection, cell survival is dependent on the suppression of an amber codon introduced at a permissive site in the chloramphenicol acetyl transferase (CAT) gene when cells co-transformed with pBK-lib and MjtRNA^TyrCUA are grown in the presence of 1 mM unnatural amino acid (UAA) and chloramphenicol (Xie and Schultz, Methods (2005) 36:227-238). Positively selected clones are then transformed into cells containing MjtRNA^TyrCUA and a gene encoding the toxic barnase protein with three amber mutations introduced at permissive sites. These cells are grown in the absence of UAA to remove any clones that utilize endogenous amino acids (negative selection). These positive and negative selection are described in detail below.
Positive Selection—E. coli DH10B harboring the pREP(2)/YC plasmid was used as the host strain for the positive selection. Cells were transformed with the pBK-lib5 library, recovered in SOC for 1 hour, washed twice with glycerol minimal media with leucine (GMML) before plating on GMML-agar plates supplemented with kanamycin, chloramphenicol, tetracycline and 7-hydroxycoumarin-ethylglycine at 50 μg/mL, 60 μg/mL, 15 μg/mL and 1 mM respectively. […]

Molecule	extinction coefficient ([1]; at 360 nm) [M⁻¹ cm⁻¹]	quantum yield [1]	pKa [2]	chloramphenicol concentration at which the clone survives ([3]; in the absence of 7-hydroxycoumarin-ethylglycine) [µg/mL]	chloramphenicol concentration at which the clone survives ([3]; in the presence of 1 mM 7-hydroxycoumarin-ethylglycine) [µg/mL]
N[C@@H](CCc1cc(=O)oc2cc(O)ccc12)C(=O)O [L-(7-hydroxycoumarin-4-yl)ethylglycine]	17000	0.63	7.8		
B1				20	100

Source: US7807411B2, “Genetically encoded fluorescent coumarin amino acids” (The Scripps Research Institute, priority 2006, dated 2010)
